Earlier results, collected in patent US20080057123A1, “Controlled Release Formulations” (Jagotec AG, priority 2006, published 2008).

For `COC(=O)C1=C(C)NC(C)=C(C(=O)OCC(C)C)C1c1ccccc1[N+](=O)[O-]` (centres unmarked) [Nisoldipine], the solubility in ethanol (ethanol) is listed as “soluble” and the solubility in water (water) is listed as “practically insoluble”.
